{"source": "paper PMC7482436", "about": "“Optopharmacology reveals a differential contribution of native GABAA receptors to dendritic and somatic inhibition using azogabazine” (Neuropharmacology, 2020)", "key": {"cerebellar granule cells [1]": {"test_system": "cerebellar granule cells", "assay": "Current clamp of action potential firing in cultured cerebellar granule cells with membrane-delimited UV spot", "format": "cell-based, Sprague Dawley rats", "details": "1 μM azogabazine; for inhibition at 1 µM: Rattus norvegicus", "procedure": "Dissociated cerebellar cultures were prepared from cerebellar tissue taken from postnatal day 4 (P4) Sprague Dawley rats. Tissue blocks were incubated in trypsin for 10 min (0.1% w/v), washed in Hanks Balanced Salt Solution (HBSS), and then triturated in DNase (0.05% w/v in 12 mM MgSO4). Cells were plated on poly-L-ornithine coated 22 mm glass coverslips in Basal Medium Eagle (BME) supplemented with 0.5% (w/v) glucose, 5 mg/l insulin, 5 mg/l transferrin, 5 mg/l selenium, 20 u/ml penicillin-G and 20 μg/ml streptomycin, 0.2 mM glutamine, 1.2 mM NaCl, and 5% (v/v) fetal calf serum. The neuronal culture was then allowed to develop for 7–10 days at 37 °C in humidified air with 5% CO2 before used for experiments.\nTo initiate photo-isomerization of azogabazine, optical light paths were used to convey UV laser (Obis [375 nm], Coherent Inc., Santa Clara, USA) or blue LED light (OptoLED [470 nm], Cairn Research Ltd, Faversham, U.K.) through a variable diaphragm (for setting the illuminated spot-diameter), and finally through a water-immersion objective (Nikon, NIR Apo 40×/0.8w) to the cells. The diaphragm was kept fully open for whole cell light exposure experiments and reduced to generate small spots (~8–12 μm) when exposing soma or proximal dendritic areas. The illuminated spot size and position could be adjusted during experiments. Whereas the blue LED could be operated at high power (8.1 mW) during experiments, the UV laser output was empirically adjusted to 2 mW (4% of maximum operating power) to avoid cell damage, but still sufficient to adequately azogabazine isomerization. To adjust the size and position of the illuminated spot, a 440 nm white LED pilot light and a 515 nm long-pass filter were used before switching to UV or blue light.\nIPSCs from cerebellar granule cells were detected post-hoc using WinEDR 3.5.6, and analysed for frequency, amplitude, rise time and weighted decay tau using WinWCP 4.9.6. Action potentials from cerebellar granule cells were recorded under current-clamp and were similarly detected with WinEDR 3.5.6. Data were subjected to statistical analyses (ANOVA, paired and unpaired Student t-tests).\nTo assess neuronal excitability and GABA inhibition, current clamp recordings were performed from cultured granule cells to monitor action potential generation in the presence of 1 μM azogabazine before and after applying UV light."}, "[2]": {"assay": "1H NMR of cis:trans isomer ratio and isomer stability under different light conditions", "format": "physicochemical", "procedure": "For most of the study azogabazine was kept in darkness to ensure a stock of near-100% trans-isomer. Unless stated otherwise, experiments were performed in near-darkness (under red light) when making azogabazine stocks (1 mM stock solution in DMSO), and when pre-exposing stock solutions to UV or blue light using wavelength specific LEDs. Pre-exposure of azogabazine (stock) to UV or blue light was undertaken by positioning a UV (365 nm) or blue (470 nm) OptoLED (Cairn Research Ltd, Faversham, UK) 2–3 mm above a 500 μl droplet on parafilm and exposing for 2 min at maximum light intensity to ensure attainment of equilibrium between cis and trans isomers. The UV LED was operated at 1.2 A to achieve a light intensity output at the surface of the droplet of 5.3 mW. By comparison, the Blue LED was run at 0.9 A for a light intensity output of 8.1 mW at the surface of the droplet.\nTo physically assess the photo-conversion efficiency between the cis and trans isomers we determined the proton (^1H)-NMR spectra for azogabazine ([…]) in deuterated DMSO under different light conditions. Initially, azogabazine was retained in complete darkness for >14 days and then stored under similar dark conditions. This drove the cis:trans equilibrium almost completely towards the more thermodynamically stable trans isomer (Fig. 1C). […] By integrating the ^1H NMR spectra, long-term darkness produced ~100% of trans-azogabazine, whereas the UV (365 nm) exposure produced an equilibrium of ~85% cis to 15% trans isomers. […] Thus, switching the wavelength of light produced substantive photoisomerisation of azogabazine.\nFig. 2 Azogabazine isomerization and isomer stability. (A), Stability plot for the cis-isomer for non-dark adapted azogabazine samples exposed to different wavelengths of light: λ 365, 405, 470, 530, 565 nm, and near-infrared (NR), prior to ^1H NMR. […] A long (60 s) period of UV-exposure was needed to reach a maximal equilibrium conversion ratio of ~85 : 15% for cis: trans isomers. […] (B), The stability of a UV exposed and established cis: trans ratio is dependent on subsequent storage conditions. If the UV-exposed sample is subsequently kept in ambient light (blue line), the cis:trans ratio changes over ~ 2–4 h towards ~25% cis: 75% trans remaining stable over 10 days (dashed blue line). By contrast, the UV-exposed sample remained stable (~85% cis: 15% trans) over 24 h if subsequently kept in darkness (red line). However, over 10 days, conversion to a predominant trans-form was evident (dashed red line). Finally, when a sample which had been kept in ambient light (~25% cis: 75% trans) was then placed and stored in darkness, it remained stable over 24 h (green line) but slowly converted again to the trans form over 10 days (dashed green line).\nTo investigate the dynamic relationship between the two azogabazine isomers, we investigated the effect of azogabazine in solution under conditions that result in three different ratios of trans: cis isomers. These included: a dark-adapted solution (trans 100: cis 0%); one pre-exposed for 60 s to blue light (trans 75: cis 25%); and a third exposed for the same duration to UV light (trans 15: cis 85%). […] All subsequent experiments were performed in near-darkness and within 3 h after the trans: cis ratios were established to ensure the stability of the isomers during experimentation. […] The later provides assurance as to the relative time stability of the cis and trans isoforms of azogabazine."}, "α1β2γ2L GABAARs [3]": {"target": "T1, α1β2γ2L GABAARs (Mus musculus, UniProt P62812+P63137)", "T1 construct": "expressed in transfected cells; host or cells: HEK293", "T1 sequence (P62812 28-455)": "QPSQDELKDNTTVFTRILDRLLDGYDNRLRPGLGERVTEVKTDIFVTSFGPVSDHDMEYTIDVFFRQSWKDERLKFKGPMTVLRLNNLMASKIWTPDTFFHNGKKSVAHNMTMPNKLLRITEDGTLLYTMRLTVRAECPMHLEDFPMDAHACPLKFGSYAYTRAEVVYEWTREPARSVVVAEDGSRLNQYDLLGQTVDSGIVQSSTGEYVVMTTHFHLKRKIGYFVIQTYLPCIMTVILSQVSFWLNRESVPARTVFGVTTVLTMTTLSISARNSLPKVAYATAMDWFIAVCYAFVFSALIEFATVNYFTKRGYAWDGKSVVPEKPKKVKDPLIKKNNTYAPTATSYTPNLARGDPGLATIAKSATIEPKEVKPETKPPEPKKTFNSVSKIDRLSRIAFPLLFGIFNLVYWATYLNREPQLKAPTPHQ", "T1 sequence (P63137 25-512 limits assumed)": "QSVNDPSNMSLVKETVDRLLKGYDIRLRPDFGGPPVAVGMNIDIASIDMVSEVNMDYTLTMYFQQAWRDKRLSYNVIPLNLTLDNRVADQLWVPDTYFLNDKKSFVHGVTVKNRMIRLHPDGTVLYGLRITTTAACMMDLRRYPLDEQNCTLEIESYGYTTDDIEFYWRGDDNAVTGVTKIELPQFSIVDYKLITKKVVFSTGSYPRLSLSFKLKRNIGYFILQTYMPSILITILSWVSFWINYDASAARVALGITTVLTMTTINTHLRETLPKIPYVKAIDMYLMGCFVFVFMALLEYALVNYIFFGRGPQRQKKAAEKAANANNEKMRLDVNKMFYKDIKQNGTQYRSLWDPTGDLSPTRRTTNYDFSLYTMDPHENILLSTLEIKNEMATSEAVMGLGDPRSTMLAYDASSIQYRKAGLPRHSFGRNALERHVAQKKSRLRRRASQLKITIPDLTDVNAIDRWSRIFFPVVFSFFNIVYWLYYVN", "T1 sequence (P22723 39-474 partner)": "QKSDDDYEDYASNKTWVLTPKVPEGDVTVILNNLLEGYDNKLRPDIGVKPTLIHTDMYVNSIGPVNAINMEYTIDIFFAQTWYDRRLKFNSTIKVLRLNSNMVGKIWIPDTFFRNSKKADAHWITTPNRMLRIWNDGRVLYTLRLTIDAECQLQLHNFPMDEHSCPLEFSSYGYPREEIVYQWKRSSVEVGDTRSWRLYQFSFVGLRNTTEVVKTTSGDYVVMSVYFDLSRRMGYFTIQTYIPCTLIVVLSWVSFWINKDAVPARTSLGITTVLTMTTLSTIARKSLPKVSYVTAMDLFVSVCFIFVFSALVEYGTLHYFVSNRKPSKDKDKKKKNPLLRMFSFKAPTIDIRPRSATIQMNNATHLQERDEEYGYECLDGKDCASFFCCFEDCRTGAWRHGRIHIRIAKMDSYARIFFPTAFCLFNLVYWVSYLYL", "assay": "Whole-cell patch clamp of GABA currents, recombinant α1β2γ2L GABAARs in HEK293 cells", "format": "cell-based, murine", "details": "for IC50: 10 μM GABA"}, "α1β2γ2L GABAARs [4]": {"target": "T1, α1β2γ2L GABAARs", "parameters": "method as in Huckvale et al., 2016", "details": "normal ambient daylight; ref Huckvale et al., 2016; cited from earlier work"}, "cerebellar granule cells [5]": {"test_system": "cerebellar granule cells", "assay": "Voltage clamp of GABA-mediated IPSCs in cultured cerebellar granule cells with membrane-delimited UV spot", "format": "cell-based, Sprague Dawley rats", "details": "for mean IPSC amplitude recovered with UV light / IPSC frequency normalised to 100 μm^2 membrane area: 1 μM azogabazine; for mean IPSC amplitude recovered with UV light: −60 mV, n = 12"}, "[6]": {"details": "UV 365 nm exposure for 60 s, equilibrium"}, "[7]": {"details": "blue light 470 nm for 60 s, photostationary state"}}, "note": "Like-named read-outs stand apart in the source and are kept apart here.", "data": [{"smiles": "N=c1ccc(-c2ccc(N=Nc3ccccc3)cc2)nn1CCCC(=O)O", "note": "[azogabazine]", "values": [{"measurement": "spike frequency", "setting": "cerebellar granule cells [1]; before UV", "value": "8.4 ± 3.3", "unit": "Hz"}, {"measurement": "burst frequency", "setting": "cerebellar granule cells [1]; burst firing cells", "value": "1.1 ± 0.3", "unit": "Hz"}, {"measurement": "individual spikes per burst", "setting": "cerebellar granule cells [1]; burst firing cells", "value": "11 ± 3"}, {"measurement": "inhibition at 1 µM", "setting": "cerebellar granule cells [1]; UV on proximal dendritic zones, normalised to exposed area, read-out: inhibition of individual spike generation after UV isomerization", "value": "50 ± 17", "unit": "%"}, {"measurement": "inhibition at 1 µM", "setting": "cerebellar granule cells [1]; UV on proximal dendritic zones, read-out: inhibition of spike burst generation after UV isomerization", "value": "60 ± 9", "unit": "%"}, {"measurement": "inhibition at 1 µM", "setting": "cerebellar granule cells [1]; UV on somatic membrane, normalised to exposed area, read-out: inhibition of individual spike generation after UV isomerization", "value": "18 ± 3", "unit": "%"}, {"measurement": "inhibition at 1 µM", "setting": "cerebellar granule cells [1]; UV on somatic membrane, read-out: inhibition of spike burst generation after UV isomerization", "value": "25 ± 3", "unit": "%"}, {"measurement": "cis isomer fraction", "setting": "[2]; [6]", "value": "~ 85%"}, {"measurement": "trans isomer fraction", "setting": "[2]; [6]", "value": 15, "unit": "%"}, {"measurement": "time for UV-established cis:trans ratio to change towards ~25% cis: 75% trans", "setting": "[2]; UV-exposed sample kept in ambient light", "value": "2 to 4", "unit": "h"}, {"measurement": "cis isomer fraction", "setting": "[2]; [7]", "value": 25, "unit": "%"}, {"measurement": "trans isomer fraction", "setting": "[2]; [7]", "value": "approximately 75%"}, {"measurement": "trans isomer fraction", "setting": "[2]; long-term darkness, deuterated DMSO", "value": "~ 100%"}, {"measurement": "block of GABA current", "setting": "α1β2γ2L GABAARs [3]; 1 μM azogabazine co-applied with 10 μM GABA, ambient daylight", "value": "near complete block"}, {"measurement": "remaining activity at 1 µM", "setting": "α1β2γ2L GABAARs [3]; HEK293, read-out: GABA current recovery during UV light exposure, % of control GABA current, 1 μM azogabazine (not dark-adapted) + 10 μM GABA, UV light, n = 8", "value": "64 ± 9", "unit": "%"}, {"measurement": "remaining activity at 1 µM", "setting": "α1β2γ2L GABAARs [3]; HEK293, 1 μM azogabazine (not dark-adapted) + 10 μM GABA, blue light, n = 8, read-out: GABA current during blue light exposure, % of control", "value": "6 ± 3", "unit": "%"}, {"measurement": "IC50", "setting": "α1β2γ2L GABAARs [3]; UV pre-exposed azogabazine (365 PE, ~15% trans)", "value": 104, "unit": "nM"}, {"measurement": "IC50", "setting": "α1β2γ2L GABAARs [3]; dark-adapted azogabazine (~100% trans), wild-type", "value": 21.1, "unit": "nM"}, {"measurement": "inhibitory potency of dark-adapted versus UV pre-exposed azogabazine", "setting": "α1β2γ2L GABAARs [3]; dark-adapted higher than UV pre-exposed", "value": 5, "unit": "fold"}, {"measurement": "IC50", "setting": "α1β2γ2L GABAARs [4]", "value": 22.6, "unit": "nM"}, {"measurement": "pIC50", "setting": "α1β2γ2L GABAARs [4]", "value": "7.65 ± 0.14"}, {"measurement": "block of GABA-mediated IPSCs", "setting": "cerebellar granule cells [5]; 1 μM azogabazine (saturating), dark-adapted", "value": "rapidly blocked all the GABA-mediated IPSCs"}, {"measurement": "mean IPSC amplitude recovered with UV light", "setting": "cerebellar granule cells [5]; UV spot directed to soma", "value": "−74 ± 16", "unit": "pA"}, {"measurement": "IPSC frequency normalised to 100 μm^2 membrane area", "setting": "cerebellar granule cells [5]; UV spot on proximal dendrites", "value": "4.2 ± 0.9", "unit": "Hz"}, {"measurement": "mean IPSC amplitude recovered with UV light", "setting": "cerebellar granule cells [5]; UV spot on proximal dendritic zones", "value": "−41 ± 7", "unit": "pA"}, {"measurement": "IPSC frequency normalised to 100 μm^2 membrane area", "setting": "cerebellar granule cells [5]; UV spot on soma", "value": "1.8 ± 0.3", "unit": "Hz"}]}]}
